Measured values as given in patent US9505767B2, “Pyrazolo[1,5-A]pyrimidin-7(4H)-onehistone demethylase inhibitors” (Genentech, Inc., priority 2013, dated 2016).

Columns and labels:
[1] = target: T1, KDM5A (Homo sapiens, UniProt P29375); assay: KDM5A Demethylase Assay (MassSpec Assay-A); type: biochemical; conditions: full length recombinant Flag tagged KDM5A, 20 nM; MassSpec readout; biotinylated H3K9me1 peptide 4.0 μM; read-out: A KDM5A MS (IC50)
T1 construct: Full length recombinant Flag tagged KDM5A protein was purified from Sf9 insect cells; Flag; made in house; host or cells: Sf9 insect cells
Protocol: Full length recombinant Flag tagged KDM5A protein was purified from […] insect cells. The demethylation reaction buffer contained 50 mM TrisCl pH 7.4, 0.01% Triton X-100, 0.025 mg/mL BSA, 1 mM ascorbate (Cat# A4034, Sigma Aldrich), 2 mM TCEP (Cat# D9779, Sigma Aldrich), 2.0 μM α-ketoglutarate (# K2010, Sigma Aldrich) and 50 μM Fe2(NH4)2(SO4)2 (Cat# F1543, Sigma Aldrich). In a 25 μL demethylation reaction system, 20 nM recombinant KDM5A and was incubated with compounds for 10 minutes in the above buffer, and then […] (# K2010, Sigma Aldrich), 4.0 μM biotinylated H3K9me1 peptide (1-21 aa), and Fe2(NH4)2(SO4)2 were added to initiate the reaction. (All reagent concentrations are final reagent concentrations.) Reactions were incubated for 30 minutes at room temperature, and then quenched by addition of an equal volume of 1% formic acid. After termination, plates were sealed and frozen at −80° C. for analysis.

[2] = target: T1, KDM5A; assay: KDM5A Demethylase Assay (TR-FRET Assay-B); type: biochemical; conditions: full length recombinant Flag tagged KDM5A, 2 nM, TrisCl pH 7.4, 3.0 μM α-ketoglutarate, read-out: B KDM5A HTRF (IC50)
Protocol: Full length recombinant Flag tagged KDM5A protein was purified from Sf9 insect cells. The demethylation reaction buffer contained 50 mM TrisCl pH 7.4, 0.01% Triton X-100, 0.025 mg/mL BSA, 1 mM ascorbate, 2 mM TCEP, 3.0 μM α-ketoglutarate, and 50 μM Fe2(NH4)2(SO4)2. […] After a one hour incubation assays were read on a Perkin-Elmer Envision equipped with a laser source and appropriate filters.

T1 sequence (P29375 whole entry): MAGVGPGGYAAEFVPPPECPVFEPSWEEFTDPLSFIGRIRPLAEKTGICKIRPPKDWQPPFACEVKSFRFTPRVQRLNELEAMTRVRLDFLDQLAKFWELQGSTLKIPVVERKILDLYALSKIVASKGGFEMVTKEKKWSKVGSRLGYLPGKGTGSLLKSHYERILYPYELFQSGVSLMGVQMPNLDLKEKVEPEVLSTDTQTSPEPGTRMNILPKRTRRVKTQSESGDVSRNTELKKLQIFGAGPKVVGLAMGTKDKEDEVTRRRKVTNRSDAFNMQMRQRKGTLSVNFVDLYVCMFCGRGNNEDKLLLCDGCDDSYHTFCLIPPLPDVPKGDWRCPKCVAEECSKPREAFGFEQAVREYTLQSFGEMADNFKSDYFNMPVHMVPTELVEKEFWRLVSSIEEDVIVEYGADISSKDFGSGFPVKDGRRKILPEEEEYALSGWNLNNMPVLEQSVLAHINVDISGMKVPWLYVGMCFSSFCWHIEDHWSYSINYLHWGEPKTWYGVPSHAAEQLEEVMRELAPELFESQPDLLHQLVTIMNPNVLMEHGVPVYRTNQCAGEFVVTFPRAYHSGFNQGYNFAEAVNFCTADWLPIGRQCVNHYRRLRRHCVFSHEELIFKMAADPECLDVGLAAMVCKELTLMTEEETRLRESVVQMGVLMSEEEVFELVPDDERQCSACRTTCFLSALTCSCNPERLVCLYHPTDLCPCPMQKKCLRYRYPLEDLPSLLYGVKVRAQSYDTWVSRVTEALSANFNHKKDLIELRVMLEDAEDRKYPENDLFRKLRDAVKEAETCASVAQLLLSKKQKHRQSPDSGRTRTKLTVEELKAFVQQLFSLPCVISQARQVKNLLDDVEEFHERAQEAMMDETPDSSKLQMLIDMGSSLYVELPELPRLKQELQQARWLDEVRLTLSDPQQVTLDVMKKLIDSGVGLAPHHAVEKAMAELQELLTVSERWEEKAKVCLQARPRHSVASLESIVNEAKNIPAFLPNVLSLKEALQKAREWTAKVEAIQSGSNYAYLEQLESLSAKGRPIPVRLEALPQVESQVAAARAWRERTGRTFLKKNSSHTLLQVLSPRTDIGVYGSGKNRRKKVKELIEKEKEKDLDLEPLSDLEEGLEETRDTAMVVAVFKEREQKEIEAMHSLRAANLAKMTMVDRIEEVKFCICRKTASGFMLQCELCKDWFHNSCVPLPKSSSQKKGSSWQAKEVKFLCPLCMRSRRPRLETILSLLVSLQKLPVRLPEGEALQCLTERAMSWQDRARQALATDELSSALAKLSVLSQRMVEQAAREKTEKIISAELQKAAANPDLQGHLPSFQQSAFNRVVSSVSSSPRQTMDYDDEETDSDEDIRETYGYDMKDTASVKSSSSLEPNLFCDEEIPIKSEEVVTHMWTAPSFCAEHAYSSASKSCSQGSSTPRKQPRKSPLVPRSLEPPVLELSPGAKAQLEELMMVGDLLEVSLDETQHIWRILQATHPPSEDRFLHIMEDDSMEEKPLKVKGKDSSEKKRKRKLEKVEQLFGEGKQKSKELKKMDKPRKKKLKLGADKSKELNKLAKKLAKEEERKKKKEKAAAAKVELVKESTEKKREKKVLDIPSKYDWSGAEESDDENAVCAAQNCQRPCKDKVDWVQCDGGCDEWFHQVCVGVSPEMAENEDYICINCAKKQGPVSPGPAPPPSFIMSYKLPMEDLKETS

IC50 [1] [nM]	IC50 [2] [nM]	Compound
	48.7	Cc1cnc(-n2cc(-c3cnn4c(=O)c(C5CC5)c(C)[nH]c34)cn2)nc1 [Example 31, 6-cyclopropyl-5-methyl-3-(1-(5-methylpyrimidin-2-yl)-1H-pyrazol-4-yl)pyrazolo[1,5-a]pyrimidin-7(6H)-one]
	196	CCc1c(C)[nH]c2c(-c3cnn(C(C)=O)c3)cnn2c1=O [Example 33, 3-(1-acetyl-1H-pyrazol-4-yl)-6-ethyl-5-methylpyrazolo[1,5-a]pyrimidin-7(4H)-one]
	4180	CCc1c(C)[nH]c2c(-c3cnn(C(=O)N(C)C)c3)cnn2c1=O [Example 34, 4-(6-ethyl-5-methyl-7-oxo-4,7-dihydropyrazolo[1,5-a]pyrimidin-3-yl)-N,N-dimethyl-1H-pyrazole-1-carboxamide]
	543	CCc1c(C)[nH]c2c(-c3cnn(C(=O)C(C)(C)C)c3)cnn2c1=O [Example 35, 6-ethyl-5-methyl-3-(1-pivaloyl-1H-pyrazol-4-yl)pyrazolo[1,5-a]pyrimidin-7(4H)-one]
	1000	CCc1c(C)[nH]c2c(-c3cnn(C(=O)OC)c3)cnn2c1=O [Example 36, Methyl 4-(6-ethyl-5-methyl-7-oxo-4,7-dihydropyrazolo[1,5-a]pyrimidin-3-yl)-1H-pyrazole-1-carboxylate]
	335	CCc1[nH]c2c(-c3cnn(-c4ccccn4)c3)cnn2c(=O)c1C [Example 37, 5-ethyl-6-methyl-3-(1-(pyridin-2-yl)-1H-pyrazol-4-yl)pyrazolo[1,5-a]pyrimidin-7(4H)-one]
	1000	Cc1c(C(C)C)[nH]c2c(-c3cnn(-c4ccccn4)c3)cnn2c1=O [Example 38, 5-isopropyl-6-methyl-3-(1-(pyridin-2-yl)-1H-pyrazol-4-yl)pyrazolo[1,5-a]pyrimidin-7(4H)-one]
	4.1	CCc1c(CO)[nH]c2c(-c3cnn(-c4ccccn4)c3)cnn2c1=O [Example 41, 6-ethyl-5-(hydroxymethyl)-3-(1-(pyridin-2-yl)-1H-pyrazol-4-yl)pyrazolo[1,5-a]pyrimidin-7(4H)-one]
574		CCc1c(-c2ccccc2)[nH]c2c(-n3cnc(-c4ccccn4)c3)cnn2c1=O [Example 47, 6-ethyl-5-phenyl-3-(4-(pyridin-2-yl)-1H-imidazol-1-yl)pyrazolo[1,5-a]pyrimidin-7(4H)-one]
	43.7	Cc1cc(=O)n2ncc(-n3cnc(-c4ccccn4)c3)c2[nH]1 [Example 49, 5-Methyl-3-(4-(pyridin-2-yl)-1H-imidazol-1-yl)pyrazolo[1,5-a]pyrimidin-7(4H)-one]
470		Cc1c(-c2ccccc2)[nH]c2c(-n3cnc(-c4ccccn4)c3)cnn2c1=O [Example 52, 6-Methyl-5-phenyl-3-(4-(pyridin-2-yl)-1H-imidazol-1-yl)pyrazolo[1,5-a]pyrimidin-7(4H)-one]
538		CCc1c(C)[nH]c2c(-n3cnc(-c4ncccn4)c3)cnn2c1=O [Example 54, 6-ethyl-5-methyl-3-(4-(pyrimidin-2-yl)-1H-imidazol-1-yl)pyrazolo[1,5-a]pyrimidin-7(4H)-one]
94.5		CCc1c(C)[nH]c2c(-n3cnc(C(N)=O)c3)cnn2c1=O [Example 55, 1-(6-Ethyl-5-methyl-7-oxo-4,7-dihydropyrazolo[1,5-a]pyrimidin-3-yl)-1H-imidazole-4-carboxamide]
276		CCc1c(C)[nH]c2c(-c3nnc(C(N)=O)o3)cnn2c1=O [Example 56, 5-(6-Ethyl-5-methyl-7-oxo-4,7-dihydropyrazolo[1,5-a]pyrimidin-3-yl)-1,3,4-oxadiazole-2-carboxamide]
332		CCc1c(C)[nH]c2c(-c3nc(C(N)=O)no3)cnn2c1=O [Example 58, 5-(6-Ethyl-5-methyl-7-oxo-4,7-dihydropyrazolo[1,5-a]pyrimidin-3-yl)-1,2,4-oxadiazole-3-carboxamide]
	66.1	Cc1[nH]c2c(-c3cnn(-c4ccccn4)c3)cnn2c(=O)c1C [Example 61, 5,6-dimethyl-3-[1-(2-pyridyl)pyrazol-4-yl]-4H-pyrazolo[1,5-a]pyrimidin-7-one]
861		CCc1c(C)[nH]c2c(-c3cnn(-c4nccc5ccccc45)c3)cnn2c1=O [Example 66, 6-ethyl-3-(1-(isoquinolin-1-yl)-1H-pyrazol-4-yl)-5-methylpyrazolo[1,5-a]pyrimidin-7(4H)-one]
363		CCc1c(C)[nH]c2c(-c3cnn(-c4ncccc4C)c3)cnn2c1=O [Example 67, 6-ethyl-5-methyl-3-(1-(3-methylpyridin-2-yl)-1H-pyrazol-4-yl)pyrazolo[1,5-a]pyrimidin-7(4H)-one]
233		CCc1c(C)[nH]c2c(-c3cnn(-c4cccnn4)c3)cnn2c1=O [Example 69, 6-ethyl-5-methyl-3-(1-(pyridazin-3-yl)-1H-pyrazol-4-yl)pyrazolo[1,5-a]pyrimidin-7(4H)-one]

The remaining lines, values behind:

Compound	IC50 [1] [nM]	IC50 [2] [nM]
CCc1c(C)[nH]c2c(-c3cnn(-c4nccc(C)n4)c3)cnn2c1=O [Example 1]	26.3	
Cc1[nH]c2c(-c3cnn(-c4ccc(CO)cn4)c3)cnn2c(=O)c1C1CC1 [Example 32, 6-cyclopropyl-3-(1-(5-(hydroxymethyl)pyridin-2-yl)-1H-pyrazol-4-yl)-5-methylpyrazolo[1,5-a]pyrimidin-7(6H)-one]		7.9
Cc1c(C2CC2)[nH]c2c(-c3cnn(-c4ccccn4)c3)cnn2c1=O [Example 39, 5-cyclopropyl-6-methyl-3-(1-(pyridin-2-yl)-1H-pyrazol-4-yl)pyrazolo[1,5-a]pyrimidin-7(4H)-one]		624
COc1c(C)[nH]c2c(-c3cnn(-c4ccccn4)c3)cnn2c1=O [Example 40, 6-methoxy-5-methyl-3-(1-(pyridin-2-yl)-1H-pyrazol-4-yl)pyrazolo[1,5-a]pyrimidin-7(4H)-one]		101
Cc1[nH]c2c(-c3cnn(-c4ccccn4)c3)cnn2c(=O)c1Cl [Example 43, 6-chloro-5-methyl-3-[1-(2-pyridyl)pyrazol-4-yl]-4H-pyrazolo[1,5-a]pyrimidin-7-one]		60.5
CCc1c(C)[nH]c2c(-n3cnc(-c4cccnc4)c3)cnn2c1=O [Example 45, 6-ethyl-5-methyl-3-(4-(pyridin-3-yl)-1H-imidazol-1-yl)pyrazolo[1,5-a]pyrimidin-7(4H)-one]	6320	
CCc1c(C)[nH]c2c(-n3cnc(-c4ccccn4)c3)cnn2c1=O [Example 48, 6-Ethyl-5-methyl-3-(4-(pyridin-2-yl)-1H-imidazol-1-yl)pyrazolo[1,5-a]pyrimidin-7(4H)-one]	70.5	
CCc1[nH]c2c(-n3cnc(-c4ccccn4)c3)cnn2c(=O)c1CC [Example 51, 5,6-Diethyl-3-(4-(pyridin-2-yl)-1H-imidazol-1-yl)pyrazolo[1,5-a]pyrimidin-7(4H)-one]	70.8	
CCc1c(C)[nH]c2c(-n3cnc(-c4cscn4)c3)cnn2c1=O [Example 53, 6-Ethyl-5-methyl-3-(4-(thiazol-4-yl)-1H-imidazol-1-yl)pyrazolo[1,5-a]pyrimidin-7(4H)-one]	453	
CCc1c(C)[nH]c2c(-c3nnc(-c4ccccn4)o3)cnn2c1=O [Example 57, 6-Ethyl-5-methyl-3-(5-(pyridin-2-yl)-1,3,4-oxadiazol-2-yl)pyrazolo[1,5-a]pyrimidin-7(4H)-one]	268	
CCc1c(C)[nH]c2c(-c3nc(-c4ccccn4)no3)cnn2c1=O [Example 59, 6-Ethyl-5-methyl-3-(3-(pyridin-2-yl)-1,2,4-oxadiazol-5-yl)pyrazolo[1,5-a]pyrimidin-7(4H)-one]	518	
CCc1c(C)[nH]c2c(-c3cc(-c4ccccn4)on3)cnn2c1=O [Example 60, 6-Ethyl-5-methyl-3-(5-(pyridin-2-yl)isoxazol-3-yl)pyrazolo[1,5-a]pyrimidin-7(4H)-one]	4000	
Cc1[nH]c2c(-c3cnn(-c4ccccn4)c3)cnn2c(=O)c1F [Example 62, 6-fluoro-5-methyl-3-[1-(2-pyridyl)pyrazol-4-yl]-4H-pyrazolo[1,5-a]pyrimidin-7-one]		212
CCc1[nH]c2c(-c3cnn(-c4ccccn4)c3)cnn2c(=O)c1CC [Example 63, 5,6-diethyl-3-[1-(2-pyridyl)pyrazol-4-yl]-4H-pyrazolo[1,5-a]pyrimidin-7-one]		169
Cc1[nH]c2c(-c3cnn(-c4ccccn4)c3)cnn2c(=O)c1C#N [Example 64, 5-methyl-7-oxo-3-[1-(2-pyridyl)pyrazol-4-yl]-4H-pyrazolo[1,5-a]pyrimidine-6-carbonitrile]		830
CCc1c(C)[nH]c2c(-c3cnn(-c4ccc(C)cn4)c3)cnn2c1=O [Example 65, 6-ethyl-5-methyl-3-[1-(5-methyl-2-pyridyl)pyrazol-4-yl]-4H-pyrazolo[1,5-a]pyrimidin-7-one]		5.1
CCc1c(C)[nH]c2c(-c3cnn(-c4cc5ccccc5cn4)c3)cnn2c1=O [Example 68, 6-ethyl-3-(1-(isoquinolin-3-yl)-1H-pyrazol-4-yl)-5-methylpyrazolo[1,5-a]pyrimidin-7(4H)-one]	36.9	
CCc1c(C)[nH]c2c(-c3cnn(-c4cccc(OC)n4)c3)cnn2c1=O [Example 70, 6-ethyl-3-(1-(6-methoxypyridin-2-yl)-1H-pyrazol-4-yl)-5-methylpyrazolo[1,5-a]pyrimidin-7(4H)-one]	3730	
